Results: paper PMC7385556 (ACS chemical biology, 2020)
Marks after values point to notes of the source that are not given here.

Test system: Mtb K204
Format: cell-based, Mycobacterium tuberculosis
Settings: KAN alone, no inhibitor

Compound: NC[C@H]1O[C@H](O[C@H]2[C@H](O)[C@@H](O[C@H]3O[C@H](CO)[C@@H](O)[C@H](N)[C@H]3O)[C@H](N)C[C@@H]2N)[C@H](O)[C@@H](O)[C@@H]1O [KAN, kanamycin]
- MICKAN in K204: >10, >10^d μg/mL
